These are literature values, as cited in US20090131263A1, “Normalization methods for G-protein coupled receptor membrane array” (priority 2007, published 2009).

One data set deals with Gi1 (Homo sapiens, UniProt P63096). Conditions: unactivated form of G protein Gi1, reconstituted vesicle systems.
The target of another data set is Gi2 (Homo sapiens, UniProt P04899). Conditions: unactivated form of G protein Gi2, reconstituted vesicle systems.
A further data set deals with Go (Homo sapiens, UniProt P09471). Conditions: unactivated form of G protein Go, reconstituted vesicle systems.
For another data set, the target named is Gs (Homo sapiens, UniProt P63092). Conditions: unactivated form of G protein Gs, reconstituted vesicle systems.
Gs, sequence (P63092 whole entry): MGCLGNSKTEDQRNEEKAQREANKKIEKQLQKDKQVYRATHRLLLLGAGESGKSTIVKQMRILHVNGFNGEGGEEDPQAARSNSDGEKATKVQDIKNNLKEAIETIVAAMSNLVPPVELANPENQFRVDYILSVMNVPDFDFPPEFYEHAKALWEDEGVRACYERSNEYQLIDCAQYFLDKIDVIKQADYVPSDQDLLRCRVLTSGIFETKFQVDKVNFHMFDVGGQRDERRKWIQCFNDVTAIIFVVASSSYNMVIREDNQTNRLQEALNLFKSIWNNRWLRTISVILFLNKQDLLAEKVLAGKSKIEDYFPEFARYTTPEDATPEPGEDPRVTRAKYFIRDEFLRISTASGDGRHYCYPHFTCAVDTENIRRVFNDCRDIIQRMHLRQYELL

Go, sequence (P09471 whole entry): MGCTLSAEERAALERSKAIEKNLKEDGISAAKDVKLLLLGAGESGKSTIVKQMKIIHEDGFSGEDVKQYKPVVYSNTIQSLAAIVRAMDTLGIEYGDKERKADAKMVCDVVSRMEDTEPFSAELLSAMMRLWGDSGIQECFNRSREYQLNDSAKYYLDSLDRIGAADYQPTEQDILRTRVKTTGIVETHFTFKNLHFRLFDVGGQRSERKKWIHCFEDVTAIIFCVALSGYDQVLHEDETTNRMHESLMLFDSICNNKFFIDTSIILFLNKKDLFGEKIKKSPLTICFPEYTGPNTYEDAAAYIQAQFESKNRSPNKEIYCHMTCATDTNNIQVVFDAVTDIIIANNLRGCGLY
Gi2, sequence (P04899 whole entry): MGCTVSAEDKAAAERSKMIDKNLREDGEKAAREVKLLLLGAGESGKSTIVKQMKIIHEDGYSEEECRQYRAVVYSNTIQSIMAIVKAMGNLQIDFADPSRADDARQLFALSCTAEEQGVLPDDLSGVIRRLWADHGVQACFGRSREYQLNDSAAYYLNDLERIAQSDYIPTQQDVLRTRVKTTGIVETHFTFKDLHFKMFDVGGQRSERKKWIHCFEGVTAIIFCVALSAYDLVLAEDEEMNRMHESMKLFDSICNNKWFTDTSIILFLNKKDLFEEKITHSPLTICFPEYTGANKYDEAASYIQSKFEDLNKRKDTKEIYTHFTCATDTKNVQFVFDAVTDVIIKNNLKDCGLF
Gi1, sequence (P63096 whole entry): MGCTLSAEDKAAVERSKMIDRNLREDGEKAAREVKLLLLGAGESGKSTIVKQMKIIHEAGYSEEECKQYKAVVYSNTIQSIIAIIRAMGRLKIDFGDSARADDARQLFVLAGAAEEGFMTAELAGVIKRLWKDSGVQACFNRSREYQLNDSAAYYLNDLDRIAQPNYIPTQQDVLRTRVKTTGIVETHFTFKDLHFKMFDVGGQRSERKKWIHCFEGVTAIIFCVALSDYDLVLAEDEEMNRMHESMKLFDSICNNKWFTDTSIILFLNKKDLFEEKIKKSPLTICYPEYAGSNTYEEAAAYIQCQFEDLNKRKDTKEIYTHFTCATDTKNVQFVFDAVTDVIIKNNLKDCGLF

As for BODIPY-FL-GTPγS, the Kd (commonly the constant that tells how readily two partners part at equilibrium) on Gi1 is 150 nM; on Gi2, 300 nM; at Go, 6 nM; on Gs, 70 nM.
